Laboratory results: patent US20200345011A1, “METHOD OF […] GROWTH IN SOIL” (CH2O Incorporated, priority 2008, published 2020)

Assays:
[1] = Crop yield and fruit quality from treated soils; type: in vivo
Source text: Water (27.5%), PBTC (17.5%) and hydrochloric acid (HCl) (55%) were admixed to form a first solution. Water (85%) and sodium chlorite (15%) were admixed to form a second solution. The first and second solutions were combined to form a combined solution. Sufficient contact time was allowed in the mixing vessel 12 to convert a substantial portion of the sodium chlorite solution into chlorine dioxide. The combined solution can also be referred to as chlorine dioxide. For test purposes, five soil beds were prepared. These beds were covered with sheet plastic. […] […] […] […] The fifth soil bed was treated with methyl-bromide at E.P.A. label recommended dose rates.

[2] = Decomposition in soil and consequences to the environment; conditions: soil bed treatment
Source text: (§1) Water (27.5%), PBTC (17.5%) and hydrochloric acid (HCl) (55%) were admixed to form a first solution. Water (85%) and sodium chlorite (15%) were admixed to form a second solution. The first and second solutions were combined to form a combined solution. Sufficient contact time was allowed in the mixing vessel 12 to convert a substantial portion of the sodium chlorite solution into chlorine dioxide. The combined solution can also be referred to as chlorine dioxide. For test purposes, five soil beds were prepared. These beds were covered with sheet plastic. In the first bed, 150 ppm of chlorine dioxide was added irrigation water and the mixture was introduced to the soil bed until the soil bed was saturated. In the second soil bed, 350 ppm of chlorine dioxide was added to irrigation water and the mixture was introduced into the second soil bed until the second soil bed was saturated. The third soil bed received 750 ppm of chlorine dioxide in irrigation water until that bed was saturated. The fourth soil bed received a mixture of 950 ppm of chlorine dioxide in irrigation water until that soil bed was saturated. The fifth soil bed was treated with methyl-bromide at E.P.A. label recommended dose rates.

[3] = test system: weed and undesirable plant growth; experiment: Weed growth suspension in treated, plastic-covered soil beds; type: in vivo; conditions: after six days of treatment
Source text: as §1

[4] = soil treated with methyl bromide, used as at EPA label requirements

| Compound | Crates/Acres ([1]; 75 ppm solution) [Crates/Acres] | Fruit Grams ([1]; 75 ppm solution) [Grams] | Marketable Crates/Acre ([1]; 75 ppm solution) [Crates/Acre] | Crates/Acres ([1]; 175 ppm solution) [Crates/Acres] | Fruit Grams ([1]; 175 ppm solution) [Grams] | Marketable Crates/Acre ([1]; 175 ppm solution) [Crates/Acre] | Crates/Acres ([1]; 375 ppm solution) [Crates/Acres] | Fruit Grams ([1]; 375 ppm solution) [Grams] | Marketable Crates/Acre ([1]; 375 ppm solution) [Crates/Acre] | Crates/Acres ([1]; 475 ppm solution) [Crates/Acres] | Fruit Grams ([1]; 475 ppm solution) [Grams] | Marketable Crates/Acre ([1]; 475 ppm solution) [Crates/Acre] | Yield performance of treated soils versus methyl bromide treated soils ([1]; comparison in words) | Yield at the higher chlorine dioxide levels ([1]; higher versus lower chlorine dioxide levels, in words) | Consequences to the environment [2] | Suspension of weed and undesirable plant growth ([3]; all four dosages (150, 350, 750, 950 ppm in irrigation water, bed saturated)) | Crates/Acres [1, 4] [Crates/Acres] | Fruit Grams [1, 4] [Grams] | Marketable Crates/Acre [1, 4] [Crates/Acre] | Effectiveness as a fumigant ([3]; E.P.A. label recommended dose rates) |
| --- | --- | --- | --- | --- | --- | --- | --- | --- | --- | --- | --- | --- | --- | --- | --- | --- | --- | --- | --- | --- |
| [O][Cl+][O-] [Chlorine Dioxide, chlorine dioxide] | 495 | 25.5 | 431 | 483 | 26.6 | 435 | 429 | 27.1 | 572 | 651 | 28.9 | 605 | exceeded the methyl bromide treated soils | greater yields | without any negative consequences to the environment | suspend weed and undesirable plant growth entirely | – | – | – | – |
| CBr [Methyl Bromide, Methyl-bromide, reference compound] | – | – | – | – | – | – | – | – | – | – | – | – | – | – | had an adverse effect on the environment | – | 455 | 32.8 | 428 | effective as a fumigant |
